PubChem BioAssay (NCI)
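The concentration for 50% growth inhibition is given as GI50. TGI marks complete inhibition of growth.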

Key:
Assay in all cases: NCI-60 cell line screen, 384-well format
MDA-MB-468 breast = system: MDA-MB-468 breast
SNB-75 CNS = system: SNB-75 CNS
NCI-H226 lung = system: NCI-H226 lung
OVCAR-8 ovarian = system: OVCAR-8 ovarian
NCI-H23 lung = system: NCI-H23 lung
TK-10 renal = system: TK-10 renal
SR leukemia = system: SR leukemia
SF-295 CNS = system: SF-295 CNS
SF-268 CNS = system: SF-268 CNS
UACC-62 melanoma = system: UACC-62 melanoma
HOP-92 NSCLC = system: HOP-92 NSCLC
PC-3 prostate = system: PC-3 prostate
SN12C renal = system: SN12C renal
A498 renal = system: A498 renal
HL-60(TB) leukemia = system: HL-60(TB) leukemia
DU-145 prostate = system: DU-145 prostate
UACC-257 melanoma = system: UACC-257 melanoma
OVCAR-5 ovarian = system: OVCAR-5 ovarian
CAKI-1 renal = system: CAKI-1 renal
COLO 205 colon = system: COLO 205 colon
MDA-MB-435 melanoma = system: MDA-MB-435 melanoma
SK-MEL-28 melanoma = system: SK-MEL-28 melanoma
NCI/ADR-RES ovarian = system: NCI/ADR-RES ovarian
KM12 colon = system: KM12 colon
786-0 renal = system: 786-0 renal
NCI-H322M lung = system: NCI-H322M lung
HOP-62 NSCLC = system: HOP-62 NSCLC
BT-549 breast = system: BT-549 breast
NCI-H522 lung = system: NCI-H522 lung
SF-539 CNS = system: SF-539 CNS
MALME-3M melanoma = system: MALME-3M melanoma
M14 melanoma = system: M14 melanoma
OVCAR-3 ovarian = system: OVCAR-3 ovarian
SK-MEL-5 melanoma = system: SK-MEL-5 melanoma
SNB-19 CNS = system: SNB-19 CNS
MDA-MB-231 breast = system: MDA-MB-231 breast
NCI-H460 NSCLC = system: NCI-H460 NSCLC
EKVX NSCLC = system: EKVX NSCLC
ACHN renal = system: ACHN renal
HCC-2998 colon = system: HCC-2998 colon
RXF 393 renal = system: RXF 393 renal
SK-MEL-2 melanoma = system: SK-MEL-2 melanoma
HS 578T breast = system: HS 578T breast
IGROV1 ovarian = system: IGROV1 ovarian
T-47D breast = system: T-47D breast
U251 glioblastoma = system: U251 glioblastoma
MCF7 breast = system: MCF7 breast
MOLT-4 leukemia = system: MOLT-4 leukemia
RPMI-8226 leukemia = system: RPMI-8226 leukemia
OVCAR-4 ovarian = system: OVCAR-4 ovarian
A549 NSCLC = system: A549 NSCLC
SK-OV-3 ovarian = system: SK-OV-3 ovarian
HT29 colon = system: HT29 colon
HCT-15 colon = system: HCT-15 colon
SW-620 colon = system: SW-620 colon

SMILES: CC(C)n1nc(-c2cc3cc(O)ccc3[nH]2)c2c(N)ncnc21
- GI50 (MDA-MB-468 breast): 201 nM
- TGI (MDA-MB-468 breast): 790 nM
- GI50 (SNB-75 CNS): 265 nM
- TGI (SNB-75 CNS): 1560 nM
- GI50 (NCI-H226 lung): 374 nM
- TGI (NCI-H226 lung): 1290 nM
- GI50 (OVCAR-8 ovarian): 988 nM
- TGI (OVCAR-8 ovarian): 5500 nM
- GI50 (NCI-H23 lung): 952 nM
- TGI (NCI-H23 lung): 3220 nM
- GI50 (TK-10 renal): 327 nM
- TGI (TK-10 renal): 1810 nM
- GI50 (SR leukemia): 285 nM
- TGI (SR leukemia): 768 nM
- GI50 (SF-295 CNS): 1010 nM
- TGI (SF-295 CNS): 3800 nM
- GI50 (SF-268 CNS): 1840 nM
- TGI (SF-268 CNS): 5930 nM
- GI50 (UACC-62 melanoma): 507 nM
- TGI (UACC-62 melanoma): 2080 nM
- GI50 (HOP-92 NSCLC): 345 nM
- TGI (HOP-92 NSCLC): 1620 nM
- GI50 (PC-3 prostate): 241 nM
- TGI (PC-3 prostate): 1250 nM
- GI50 (SN12C renal): 382 nM
- TGI (SN12C renal): 4190 nM
- GI50 (A498 renal): 119 nM
- TGI (A498 renal): 764 nM
- GI50 (HL-60(TB) leukemia): 1760 nM
- TGI (HL-60(TB) leukemia): 3990 nM
- GI50 (DU-145 prostate): 1340 nM
- TGI (DU-145 prostate): 11000 nM
- GI50 (UACC-257 melanoma): 1140 nM
- TGI (UACC-257 melanoma): 5390 nM
- GI50 (OVCAR-5 ovarian): 421 nM
- TGI (OVCAR-5 ovarian): 3580 nM
- GI50 (CAKI-1 renal): 328 nM
- TGI (CAKI-1 renal): 1810 nM
- GI50 (COLO 205 colon): 348 nM
- TGI (COLO 205 colon): 1180 nM
- GI50 (MDA-MB-435 melanoma): 714 nM
- TGI (MDA-MB-435 melanoma): 3300 nM
- GI50 (SK-MEL-28 melanoma): 315 nM
- TGI (SK-MEL-28 melanoma): 1020 nM
- GI50 (NCI/ADR-RES ovarian): 511 nM
- TGI (NCI/ADR-RES ovarian): 2200 nM
- GI50 (KM12 colon): 448 nM
- TGI (KM12 colon): 6430 nM
- GI50 (786-0 renal): 1230 nM
- TGI (786-0 renal): 3940 nM
- GI50 (NCI-H322M lung): 391 nM
- TGI (NCI-H322M lung): 3200 nM
- GI50 (HOP-62 NSCLC): 395 nM
- TGI (HOP-62 NSCLC): 1950 nM
- GI50 (BT-549 breast): 600 nM
- TGI (BT-549 breast): 2310 nM
- GI50 (NCI-H522 lung): 104 nM
- TGI (NCI-H522 lung): 701 nM
- GI50 (SF-539 CNS): 1030 nM
- TGI (SF-539 CNS): 2940 nM
- GI50 (MALME-3M melanoma): 41.6 nM
- TGI (MALME-3M melanoma): 271 nM
- GI50 (M14 melanoma): 354 nM
- TGI (M14 melanoma): 2010 nM
- GI50 (OVCAR-3 ovarian): 514 nM
- TGI (OVCAR-3 ovarian): 4940 nM
- GI50 (SK-MEL-5 melanoma): 246 nM
- TGI (SK-MEL-5 melanoma): 1060 nM
- GI50 (SNB-19 CNS): 2870 nM
- TGI (SNB-19 CNS): 12100 nM
- GI50 (MDA-MB-231 breast): 338 nM
- TGI (MDA-MB-231 breast): 3410 nM
- GI50 (NCI-H460 NSCLC): 147 nM
- TGI (NCI-H460 NSCLC): 1400 nM
- GI50 (EKVX NSCLC): 546 nM
- TGI (EKVX NSCLC): 3050 nM
- GI50 (ACHN renal): 770 nM
- TGI (ACHN renal): 2640 nM
- GI50 (HCC-2998 colon): 1380 nM
- TGI (HCC-2998 colon): 10500 nM
- GI50 (RXF 393 renal): 372 nM
- TGI (RXF 393 renal): 1610 nM
- GI50 (SK-MEL-2 melanoma): 718 nM
- TGI (SK-MEL-2 melanoma): 1800 nM
- GI50 (HS 578T breast): 221 nM
- TGI (HS 578T breast): 808 nM
- GI50 (IGROV1 ovarian): 205 nM
- TGI (IGROV1 ovarian): 642 nM
- GI50 (T-47D breast): 107 nM
- TGI (T-47D breast): 480 nM
- GI50 (U251 glioblastoma): 1890 nM
- TGI (U251 glioblastoma): 6010 nM
- GI50 (MCF7 breast): 229 nM
- TGI (MCF7 breast): 7960 nM
- GI50 (MOLT-4 leukemia): 329 nM
- TGI (MOLT-4 leukemia): 1620 nM
- GI50 (RPMI-8226 leukemia): 91.6 nM
- TGI (RPMI-8226 leukemia): 236 nM
- GI50 (OVCAR-4 ovarian): 631 nM
- TGI (OVCAR-4 ovarian): 2820 nM
- GI50 (A549 NSCLC): 415 nM
- TGI (A549 NSCLC): 2370 nM
- GI50 (SK-OV-3 ovarian): 208 nM
- TGI (SK-OV-3 ovarian): 652 nM
- GI50 (HT29 colon): 1180 nM
- TGI (HT29 colon): 8430 nM
- GI50 (HCT-15 colon): 605 nM
- TGI (HCT-15 colon): 11900 nM
- GI50 (SW-620 colon): 4200 nM
- TGI (SW-620 colon): 14600 nM
